US9539252B2, “Piperazine-substituted benzothiophene derivatives as antipsychotic agents” (OTSUKA PHARMACEUTICAL CO., LTD., priority 2011, dated 2017)

Assay: Solubility in oil (sesame oil, benzyl benzoate), visual observation
Settings: benzyl benzoate, oil or lipid, thermodynamic from solid

solubility, > 100 mg/mL:
COCCNC(=O)OCn1c(=O)ccc2ccc(OCCCCN3CCN(c4cccc5sccc45)CC3)cc21 [Example 109, N-(2-methoxyethyl)carbamic acid 7-[4-(4-benzo[b]thiophen-4-ylpiperazin-1-yl)butoxy]-2-oxo-2H-quinolin-1-ylmethyl ester]
CCCCCCCC(=O)OCn1c(=O)ccc2ccc(OCCCCN3CCN(c4cccc5sccc45)CC3)cc21 [Example 30, octanoic acid 7-[4-(4-benzo[b]thiophen-4-ylpiperazin-1-yl)butoxy]-2-oxo-2H-quinolin-1-ylmethyl ester]
O=C(OCN1C(=O)CCc2ccc(OCCCCN3CCN(c4cccc5sccc45)CC3)cc21)c1ccoc1 [Example 96, furan-3-carboxylic acid 7-[4-(4-benzo[b]thiophen-4-ylpiperazin-1-yl)butoxy]-2-oxo-3,4-dihydro-2H-quinolin-1-ylmethyl ester]
CCNC(=O)OCN1C(=O)CCc2ccc(OCCCCN3CCN(c4cccc5sccc45)CC3)cc21 [Example 51, N-ethylcarbamic acid 7-[4-(4-benzo[b]thiophen-4-ylpiperazin-1-yl)butoxy]-2-oxo-3,4-dihydro-2H-quinolin-1-ylmethyl ester]
CC(C)(C)C(=O)OCN1C(=O)CCc2ccc(OCCCCN3CCN(c4cccc5sccc45)CC3)cc21 [Example 15, 2,2-dimethylpropionic acid 7-[4-(4-benzo[b]thiophen-4-ylpiperazin-1-yl)butoxy]-2-oxo-3,4-dihydro-2H-quinolin-1-ylmethyl ester]
CN(Cc1ccccc1)C(=O)OCn1c(=O)ccc2ccc(OCCCCN3CCN(c4cccc5sccc45)CC3)cc21 [Example 111, N-benzyl-N-methylcarbamic acid 7-[4-(4-benzo[b]thiophen-4-ylpiperazin-1-yl)butoxy]-2-oxo-2H-quinolin-1-ylmethyl ester]
CCCCCCCCCCCCCC(=O)OCn1c(=O)ccc2ccc(OCCCCN3CCN(c4cccc5sccc45)CC3)cc21 [Example 65, tetradecanoic acid 7-[4-(4-benzo[b]thiophen-4-ylpiperazin-1-yl)butoxy]-2-oxo-2H-quinolin-1-ylmethyl ester]
CCCCCCOC(=O)OCn1c(=O)ccc2ccc(OCCCCN3CCN(c4cccc5sccc45)CC3)cc21 [Example 175, carbonic acid 7-[4-(4-benzo[b]thiophen-4-ylpiperazin-1-yl)butoxy]-2-oxo-2H-quinolin-1-ylmethyl ester hexyl ester]
CCCCCCCCCCCCCCCCCC(=O)OCn1c(=O)ccc2ccc(OCCCCN3CCN(c4cccc5sccc45)CC3)cc21 [Example 60, octadecanoic acid 7-[4-(4-benzo[b]thiophen-4-ylpiperazin-1-yl)butoxy]-2-oxo-2H-quinolin-1-ylmethyl ester]
CCCCN(CCCC)C(=O)OCn1c(=O)ccc2ccc(OCCCCN3CCN(c4cccc5sccc45)CC3)cc21 [Example 45, N,N-dibutylcarbamic acid 7-[4-(4-benzo[b]thiophen-4-ylpiperazin-1-yl)butoxy]-2-oxo-2H-quinolin-1-ylmethyl ester]
CCCCCCCCCCCC(=O)OCN1C(=O)CCc2ccc(OCCCCN3CCN(c4cccc5sccc45)CC3)cc21 [Example 21, dodecanoic acid 7-[4-(4-benzo[b]thiophen-4-ylpiperazin-1-yl)butoxy]-2-oxo-3,4-dihydro-2H-quinolin-1-ylmethyl ester]
O=C(OCN1C(=O)CCc2ccc(OCCCCN3CCN(c4cccc5sccc45)CC3)cc21)C1CCOCC1 [Example 120, tetrahydropyran-4-carboxylic acid 7-[4-(4-benzo[b]thiophen-4-ylpiperazin-1-yl)butoxy]-2-oxo-3,4-dihydro-2H-quinolin-1-ylmethyl ester]
CCCC(C)C(=O)OCN1C(=O)CCc2ccc(OCCCCN3CCN(c4cccc5sccc45)CC3)cc21 (stereo not drawn) [Example 81, 2-methylpentanoic acid 7-[4-(4-benzo[b]thiophen-4-ylpiperazin-1-yl)butoxy]-2-oxo-3,4-dihydro-2H-quinolin-1-ylmethyl ester]
CCCCCCCCCCCCCCOC(=O)OCn1c(=O)ccc2ccc(OCCCCN3CCN(c4cccc5sccc45)CC3)cc21 [Example 179, carbonic acid 7-[4-(4-benzo[b]thiophen-4-ylpiperazin-1-yl)butoxy]-2-oxo-2H-quinolin-1-ylmethyl ester tetradecyl ester]
O=C(OCN1C(=O)CCc2ccc(OCCCCN3CCN(c4cccc5sccc45)CC3)cc21)N1CCCCC1 [Example 9, piperidine-1-carboxylic acid 7-[4-(4-benzo[b]thiophen-4-ylpiperazin-1-yl)butoxy]-2-oxo-3,4-dihydro-2H-quinolin-1-ylmethyl ester]
CCCCCC(C)C(=O)OCN1C(=O)CCc2ccc(OCCCCN3CCN(c4cccc5sccc45)CC3)cc21 (stereo not drawn) [Example 92, 2-methylheptanoic acid 7-[4-(4-benzo[b]thiophen-4-ylpiperazin-1-yl)butoxy]-2-oxo-3,4-dihydro-2H-quinolin-1-ylmethyl ester]
C=CCNC(=O)OCn1c(=O)ccc2ccc(OCCCCN3CCN(c4cccc5sccc45)CC3)cc21 [Example 112, N-allylcarbamic acid 7-[4-(4-benzo[b]thiophen-4-ylpiperazin-1-yl)butoxy]-2-oxo-2H-quinolin-1-ylmethyl ester]
CCCCCCCCCCNC(=O)OCN1C(=O)CC(C)(C)c2ccc(OCCCCN3CCN(c4cccc5sccc45)CC3)cc21 [Example 158, N-decylcarbamic acid 7-[4-(4-benzo[b]thiophen-4-ylpiperazin-1-yl)-butoxy]-4,4-dimethyl-2-oxo-3,4-dihydro-2H-quinolin-1-ylmethyl ester]
CCCC(=O)OCN1C(=O)CCc2ccc(OCCCCN3CCN(c4cccc5sccc45)CC3)cc21 [Example 19, butyric acid 7-[4-(4-benzo[b]thiophen-4-ylpiperazin-1-yl)butoxy]-2-oxo-3,4-dihydro-2H-quinolin-1-ylmethyl ester]
CCCCCCCCCCCCCCCCC(=O)OCN1C(=O)CCc2ccc(OCCCCN3CCN(c4cccc5sccc45)CC3)cc21 [Example 95, heptadecanoic acid 7-[4-(4-benzo[b]thiophen-4-ylpiperazin-1-yl)butoxy]-2-oxo-3,4-dihydro-2H-quinolin-1-ylmethyl ester]
CCCCCCCCCCCCCCCCCCCC(=O)OCn1c(=O)ccc2ccc(OCCCCN3CCN(c4cccc5sccc45)CC3)cc21 [Example 41, icosanoic acid 7-[4-(4-benzo[b]thiophen-4-ylpiperazin-1-yl)butoxy]-2-oxo-2H-quinolin-1-ylmethyl ester]
CCCCNC(=O)OCN1C(=O)CCc2ccc(OCCCCN3CCN(c4cccc5sccc45)CC3)cc21 [Example 27, N-butylcarbamic acid 7-[4-(4-benzo[b]thiophen-4-ylpiperazin-1-yl)butoxy]-2-oxo-3,4-dihydro-2H-quinolin-1-ylmethyl ester]
O=C(NCCc1ccccc1)OCn1c(=O)ccc2ccc(OCCCCN3CCN(c4cccc5sccc45)CC3)cc21 [Example 116, N-phenethylcarbamic acid 7-[4-(4-75 benzo[b]thiophen-4-ylpiperazin-1-yl)butoxy]-2-oxo-2H-quinolin-1-ylmethyl ester]
O=C(OCn1c(=O)ccc2ccc(OCCCCN3CCN(c4cccc5sccc45)CC3)cc21)N1CCCCC1 [Example 10, piperidine-1-carboxylic acid 7-[4-(4-benzo[b]thiophen-4-ylpiperazin-1-yl)butoxy]-2-oxo-2H-quinolin-1-ylmethyl ester]
CCCCC(C)(C)C(=O)OCN1C(=O)CCc2ccc(OCCCCN3CCN(c4cccc5sccc45)CC3)cc21 [Example 84, 2,2-dimethylhexanoic acid 7-[4-(4-benzo[b]thiophen-4-ylpiperazin-1-yl)butoxy]-2-oxo-3,4-dihydro-2H-quinolin-1-ylmethyl ester]
CN(C)C(=O)OCn1c(=O)ccc2ccc(OCCCCN3CCN(c4cccc5sccc45)CC3)cc21 [Example 56, N,N-dimethylcarbamic acid 7-[4-(4-benzo[b]thiophen-4-ylpiperazin-1-yl)butoxy]-2-oxo-2H-quinolin-1-ylmethyl ester]
CCCCN(C)C(=O)OCN1C(=O)CCc2ccc(OCCCCN3CCN(c4cccc5sccc45)CC3)cc21 [Example 16, N-butyl-N-methylcarbamic acid 7-[4-(4-benzo[b]thiophen-4-ylpiperazin-1-yl)butoxy]-2-oxo-3,4-dihydro-2H-quinolin-1-ylmethyl ester]
O=C(OCn1c(=O)ccc2ccc(OCCCCN3CCN(c4cccc5sccc45)CC3)cc21)C1CCCC1 [Example 37, cyclopentanecarboxylic acid 7-[4-(4-benzo[b]thiophen-4-ylpiperazin-1-yl)butoxy]-2-oxo-2H-quinolin-1-ylmethyl ester]
CCOC(=O)OCn1c(=O)ccc2ccc(OCCCCN3CCN(c4cccc5sccc45)CC3)cc21 [Example 50, carbonic acid 7-[4-(4-benzo[b]thiophen-4-ylpiperazin-1-yl)butoxy]-2-oxo-2H-quinolin-1-ylmethyl ester ethyl ester]
O=C(NCc1ccccc1)OCN1C(=O)CCc2ccc(OCCCCN3CCN(c4cccc5sccc45)CC3)cc21 [Example 80, N-benzylcarbamic acid 7-[4-(4-benzo[b]thiophen-4-ylpiperazin-1-yl)butoxy]-2-oxo-3,4-dihydro-2H-quinolin-1-ylmethyl ester]
O=C(OCOc1ccc2ccc(OCCCCN3CCN(c4cccc5sccc45)CC3)cc2n1)OC1CCCCC1 [Example 372, 7-[4-(4-benzo[b]thiophen-4-yl-piperazin-1-yl)-butoxy]-quinolin-2-yloxymethyl cyclohexyl carbonate]

Same assay, conditions: sesame oil, oil or lipid, thermodynamic from solid

solubility, > 100 mg/mL:
CCCCCCCCCCCCCCCCCC(=O)OCn1c(=O)ccc2ccc(OCCCCN3CCN(c4cccc5sccc45)CC3)cc21 [Example 60, octadecanoic acid 7-[4-(4-benzo[b]thiophen-4-ylpiperazin-1-yl)butoxy]-2-oxo-2H-quinolin-1-ylmethyl ester]
CCCCN(CCCC)C(=O)OCn1c(=O)ccc2ccc(OCCCCN3CCN(c4cccc5sccc45)CC3)cc21 [Example 45, N,N-dibutylcarbamic acid 7-[4-(4-benzo[b]thiophen-4-ylpiperazin-1-yl)butoxy]-2-oxo-2H-quinolin-1-ylmethyl ester]
CCCCCCCCCCCC(=O)OCN1C(=O)CCc2ccc(OCCCCN3CCN(c4cccc5sccc45)CC3)cc21 [Example 21, dodecanoic acid 7-[4-(4-benzo[b]thiophen-4-ylpiperazin-1-yl)butoxy]-2-oxo-3,4-dihydro-2H-quinolin-1-ylmethyl ester]
CCCCCCCCCCCCCCOC(=O)OCn1c(=O)ccc2ccc(OCCCCN3CCN(c4cccc5sccc45)CC3)cc21 [Example 179, carbonic acid 7-[4-(4-benzo[b]thiophen-4-ylpiperazin-1-yl)butoxy]-2-oxo-2H-quinolin-1-ylmethyl ester tetradecyl ester]
CCCCCCCCCCNC(=O)OCN1C(=O)CC(C)(C)c2ccc(OCCCCN3CCN(c4cccc5sccc45)CC3)cc21 [Example 158, N-decylcarbamic acid 7-[4-(4-benzo[b]thiophen-4-ylpiperazin-1-yl)-butoxy]-4,4-dimethyl-2-oxo-3,4-dihydro-2H-quinolin-1-ylmethyl ester]
